Experimental data as given in patent EP0830600B1, “FUNCTIONAL BIOASSAY FOR G-PROTEIN COUPLED RECEPTOR AGONISTS AND ANTAGONISTS” (Praecis Pharmaceuticals Incorporated, priority 1995, dated 1996).

What was measured:
[1] = target: T1, human β2-adrenergic receptor (Homo sapiens, UniProt P07550); assay: Cell morphology (photomicroscopy) of β2-adrenergic receptor-expressing cell line; format: cell-based; conditions: several days
T1 construct: expressed in transfected cells
Protocol: Several days later, cells were analyzed by photomicroscopy to determine the effect of treatment on cell morphology. […] Assessment of the agonist or antagonist properties of individual compounds or libraries of compounds can be achieved by, for example, microscopic observation of the cells, or alternatively, by video digitizing techniques to quantify cell shape changes and/or cell alignment changes.

[2] = tested on: untransfected CHO DUKX B 1 cells; assay: MTT cell viability, control untransfected CHO cells; format: cell-based, Chinese Hamster; conditions: carbachol or pirenzepine; 5 days; Figure 2A
[3] = tested on: untransfected CHO cells; assay: Cell morphology, control untransfected CHO cells; format: cell-based, Chinese Hamster; conditions: cells not expressing the recombinant β2-adrenergic receptor
Protocol: . Several days later, cells were analyzed by photomicroscopy to determine the effect of treatment on cell morphology. […]. Salbutamol induced both a change in cell shape (i.e., elongation of the cells) and an alignment of the cells with each other. […]. Assessment of the agonist or antagonist properties of individual compounds or libraries of compounds can be achieved by, for example, microscopic observation of the cells, or alternatively, by video digitizing techniques to quantify cell shape changes and/or cell alignment changes. […]

T1 sequence (P07550 whole entry): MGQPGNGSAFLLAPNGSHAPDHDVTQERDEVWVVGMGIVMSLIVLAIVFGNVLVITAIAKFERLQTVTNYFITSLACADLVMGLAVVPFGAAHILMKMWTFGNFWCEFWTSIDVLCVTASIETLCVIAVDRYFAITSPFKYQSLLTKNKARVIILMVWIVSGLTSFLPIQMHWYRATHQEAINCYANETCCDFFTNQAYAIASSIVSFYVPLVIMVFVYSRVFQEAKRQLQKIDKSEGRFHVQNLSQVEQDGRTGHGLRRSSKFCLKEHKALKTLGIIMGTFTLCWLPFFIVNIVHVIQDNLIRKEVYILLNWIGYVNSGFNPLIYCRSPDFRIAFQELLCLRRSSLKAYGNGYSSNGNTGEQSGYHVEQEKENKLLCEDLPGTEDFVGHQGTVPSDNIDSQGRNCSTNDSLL

COc1ccc(OC)c(C(O)C(C)NC(C)(C)C)c1 (centres unmarked) [butoxamine]
cell morphology, antagonism of salbutamol effect ([1]; 10 nM butoxamine together with salbutamol): indistinguishable from control cells
effect of treatment on cell morphology (cell shape and alignment) ([1]; compound alone (salbutamol 1 nM), photomicroscopy, Figure 4): no detectable change in cell shape or alignment

CN1CCN(CC(=O)N2c3ccccc3C(=O)Nc3cccnc32)CC1 [pirenzepine]
viability of untransfected CHO cells (MTT) [2]: little effect

C[N+](C)(C)CCOC(N)=O [carbachol]
viability of untransfected CHO cells (MTT) [2]: little effect

CC(C)(C)NCC(O)c1ccc(O)c(CO)c1 (centres unmarked) [salbutamol]
change in cell shape or alignment on untransfected CHO cells [3]: no detectable change in cell shape or alignment
